ChEMBL document CHEMBL3603807, “Discovery of 2-arylamino-4-(1-methyl-3-isopropylsulfonyl-4-pyrazol-amino)pyrimidines as potent anaplastic lymphoma kinase (ALK) inhibitors” (Bioorg Med Chem Lett, 2015)
pIC50: −log10 of the molar value.

Key:
[1] = Antiproliferative activity against human KARPAS299 cells assessed as inhibition of cell proliferation incubated for 96 hrs by cell-titer-Glo assay; format: functional, cell-based; details: KARPAS-299, 96 h
NCI-H2228 = test: Antiproliferative activity against human NCI-H2228 cells assessed as inhibition of cell proliferation incubated for 96 hrs by cell-titer-Glo assay; format: functional, cell-based; details: NCI-H2228, 96 h
[2] = target: ALK tyrosine kinase receptor (Homo sapiens, UniProt Q9UM73); test: Inhibition of wild type human recombinant ALK using TK substrate-biotin incubated for 30 mins by HTRF assay
ALK tyrosine kinase receptor (Homo sapiens, UniProt Q9UM73), sequence (Q9UM73 whole entry): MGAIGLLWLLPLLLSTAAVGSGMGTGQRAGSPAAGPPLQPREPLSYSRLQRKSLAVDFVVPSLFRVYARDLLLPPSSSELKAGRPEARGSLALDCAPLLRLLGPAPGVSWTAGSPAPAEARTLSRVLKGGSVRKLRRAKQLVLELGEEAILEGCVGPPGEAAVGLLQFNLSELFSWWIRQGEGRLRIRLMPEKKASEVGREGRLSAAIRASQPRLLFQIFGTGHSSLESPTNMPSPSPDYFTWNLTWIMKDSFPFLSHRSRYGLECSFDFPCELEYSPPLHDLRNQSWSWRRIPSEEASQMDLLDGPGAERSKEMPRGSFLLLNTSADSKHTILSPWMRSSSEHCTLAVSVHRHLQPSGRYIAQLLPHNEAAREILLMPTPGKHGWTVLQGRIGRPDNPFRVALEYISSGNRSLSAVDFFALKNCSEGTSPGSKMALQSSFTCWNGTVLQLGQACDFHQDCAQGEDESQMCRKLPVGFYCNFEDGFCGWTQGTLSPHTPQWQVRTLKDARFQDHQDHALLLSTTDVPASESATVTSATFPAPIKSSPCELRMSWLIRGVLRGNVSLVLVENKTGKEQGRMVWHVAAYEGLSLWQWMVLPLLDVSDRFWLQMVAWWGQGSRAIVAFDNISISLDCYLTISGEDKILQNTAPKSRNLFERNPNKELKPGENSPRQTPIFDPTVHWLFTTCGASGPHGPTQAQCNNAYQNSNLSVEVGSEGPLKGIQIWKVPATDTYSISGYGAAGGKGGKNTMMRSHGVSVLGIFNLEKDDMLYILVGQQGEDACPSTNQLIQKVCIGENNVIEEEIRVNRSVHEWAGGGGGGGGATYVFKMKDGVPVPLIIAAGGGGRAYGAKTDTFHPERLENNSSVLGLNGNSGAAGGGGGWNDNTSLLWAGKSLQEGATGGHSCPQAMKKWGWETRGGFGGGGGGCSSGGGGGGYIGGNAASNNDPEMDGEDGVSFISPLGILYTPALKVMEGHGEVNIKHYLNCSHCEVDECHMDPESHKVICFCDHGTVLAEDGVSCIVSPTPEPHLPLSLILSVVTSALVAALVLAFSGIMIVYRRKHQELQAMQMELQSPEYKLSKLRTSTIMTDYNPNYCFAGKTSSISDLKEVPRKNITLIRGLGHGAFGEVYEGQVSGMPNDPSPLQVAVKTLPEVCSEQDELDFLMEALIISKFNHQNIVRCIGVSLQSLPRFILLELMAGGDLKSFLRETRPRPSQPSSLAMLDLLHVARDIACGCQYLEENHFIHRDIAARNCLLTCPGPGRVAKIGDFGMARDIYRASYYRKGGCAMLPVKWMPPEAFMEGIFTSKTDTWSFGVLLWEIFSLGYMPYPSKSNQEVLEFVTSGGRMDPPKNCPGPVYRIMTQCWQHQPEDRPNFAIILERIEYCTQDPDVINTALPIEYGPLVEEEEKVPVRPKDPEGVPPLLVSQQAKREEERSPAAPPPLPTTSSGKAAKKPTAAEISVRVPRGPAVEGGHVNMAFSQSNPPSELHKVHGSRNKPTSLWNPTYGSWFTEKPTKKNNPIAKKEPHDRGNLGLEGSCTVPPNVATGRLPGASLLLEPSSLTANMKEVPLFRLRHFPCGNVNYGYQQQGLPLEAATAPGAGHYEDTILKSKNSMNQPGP

[3] = target: ALK tyrosine kinase receptor (Homo sapiens, UniProt Q9UM73, L1196M); test: Inhibition of ALK L1196M mutant (unknown origin) using TK substrate-biotin incubated for 30 mins by HTRF assay
ALK tyrosine kinase receptor (Homo sapiens, UniProt Q9UM73, L1196M), sequence (Q9UM73 19-1620 L1196M limits assumed): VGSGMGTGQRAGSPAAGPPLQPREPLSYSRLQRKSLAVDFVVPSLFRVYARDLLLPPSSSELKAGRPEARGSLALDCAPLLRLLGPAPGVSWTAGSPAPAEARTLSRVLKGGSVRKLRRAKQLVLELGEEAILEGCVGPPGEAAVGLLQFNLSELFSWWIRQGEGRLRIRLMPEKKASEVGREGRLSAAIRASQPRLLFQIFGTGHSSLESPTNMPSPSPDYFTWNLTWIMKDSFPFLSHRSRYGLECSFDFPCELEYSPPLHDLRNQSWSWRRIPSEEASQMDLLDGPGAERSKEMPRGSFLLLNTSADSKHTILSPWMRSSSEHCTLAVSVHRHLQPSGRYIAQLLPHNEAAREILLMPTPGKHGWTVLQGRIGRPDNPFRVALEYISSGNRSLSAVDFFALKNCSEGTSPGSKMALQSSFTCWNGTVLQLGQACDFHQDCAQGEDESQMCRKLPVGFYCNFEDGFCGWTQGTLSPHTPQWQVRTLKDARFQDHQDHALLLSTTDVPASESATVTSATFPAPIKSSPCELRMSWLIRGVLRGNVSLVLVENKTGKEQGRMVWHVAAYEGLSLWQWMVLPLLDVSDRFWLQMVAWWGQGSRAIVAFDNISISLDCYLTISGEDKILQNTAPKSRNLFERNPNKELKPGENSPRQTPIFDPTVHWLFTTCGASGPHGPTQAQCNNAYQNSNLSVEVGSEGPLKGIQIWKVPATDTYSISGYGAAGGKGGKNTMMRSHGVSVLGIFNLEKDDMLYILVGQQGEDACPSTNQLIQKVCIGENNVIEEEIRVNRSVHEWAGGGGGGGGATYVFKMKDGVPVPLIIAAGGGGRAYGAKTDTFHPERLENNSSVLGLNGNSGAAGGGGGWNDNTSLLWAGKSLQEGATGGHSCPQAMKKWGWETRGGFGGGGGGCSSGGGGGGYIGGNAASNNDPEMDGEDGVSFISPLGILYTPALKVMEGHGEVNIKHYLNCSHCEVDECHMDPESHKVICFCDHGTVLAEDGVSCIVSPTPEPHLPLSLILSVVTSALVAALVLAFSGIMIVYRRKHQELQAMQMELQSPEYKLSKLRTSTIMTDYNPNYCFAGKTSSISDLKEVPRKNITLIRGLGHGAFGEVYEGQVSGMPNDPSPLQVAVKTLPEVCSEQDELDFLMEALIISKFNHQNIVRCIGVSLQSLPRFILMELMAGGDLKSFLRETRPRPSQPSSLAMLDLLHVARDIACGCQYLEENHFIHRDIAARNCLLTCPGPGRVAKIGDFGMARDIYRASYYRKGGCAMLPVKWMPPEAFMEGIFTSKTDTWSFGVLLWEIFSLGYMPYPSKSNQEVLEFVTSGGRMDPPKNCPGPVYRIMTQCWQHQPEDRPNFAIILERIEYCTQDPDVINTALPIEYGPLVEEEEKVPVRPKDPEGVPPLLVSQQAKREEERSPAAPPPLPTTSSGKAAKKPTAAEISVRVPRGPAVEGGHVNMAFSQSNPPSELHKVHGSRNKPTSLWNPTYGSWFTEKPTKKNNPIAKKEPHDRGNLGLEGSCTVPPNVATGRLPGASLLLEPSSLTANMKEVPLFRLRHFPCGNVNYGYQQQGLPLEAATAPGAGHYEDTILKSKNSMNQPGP

[4] = Clearance in rat; format: ADME, organism-based; details: in vivo
[5] = Cmax in Sprague-Dawley rat at 5 mg/kg, po by LC-MS/MS method; format: ADME, organism-based; parameters: dose 5 mg/kg, route oral; details: in vivo
[6] = AUC (0 to infinity) in Sprague-Dawley rat at 5 mg/kg, po by LC-MS/MS method; format: ADME, organism-based; parameters: dose 5 mg/kg, time infinity, route oral; details: in vivo
[7] = Half life in Sprague-Dawley rat at 1 mg/kg, iv by LC-MS/MS method; format: ADME, organism-based; details: in vivo
[8] = AUC (0 to infinity) in beagle dog at 1 mg/kg, iv by LC-MS/MS method; format: ADME, organism-based, Canis lupus familiaris; parameters: dose 1 mg/kg, route intravenous, time infinity; details: in vivo
[9] = Tmax in Sprague-Dawley rat at 5 mg/kg, po by LC-MS/MS method; format: ADME, organism-based; details: in vivo
[10] = Clearance in beagle dog at 1 mg/kg, iv by LC-MS/MS method; format: ADME, organism-based, Canis lupus familiaris; details: in vivo
[11] = AUC (0 to infinity) in Sprague-Dawley rat at 1 mg/kg, iv by LC-MS/MS method; format: ADME, organism-based; parameters: dose 1 mg/kg, route intravenous, time infinity; details: in vivo
[12] = Half life in beagle dog at 1 mg/kg, iv by LC-MS/MS method; format: ADME, organism-based, Canis lupus familiaris; details: in vivo
[13] = Oral bioavailability in Sprague-Dawley rat at 5 mg/kg by LC-MS/MS method; format: ADME, organism-based; details: in vivo
[14] = Clearance in Sprague-Dawley rat at 1 mg/kg, iv by LC-MS/MS method; format: ADME, organism-based; details: in vivo
[15] = AUC (0 to infinity) in beagle dog at 3 mg/kg, po by LC-MS/MS method; format: ADME, organism-based, Canis lupus familiaris; parameters: dose 3 mg/kg, route oral, time infinity; details: in vivo
[16] = Volume of distribution in Sprague-Dawley rat at 1 mg/kg, iv by LC-MS/MS method; format: ADME, organism-based; details: in vivo
[17] = Cmax in beagle dog at 3 mg/kg, po by LC-MS/MS method; format: ADME, organism-based, Canis lupus familiaris; parameters: dose 3 mg/kg, route oral; details: in vivo
[18] = Tmax in beagle dog at 3 mg/kg, po by LC-MS/MS method; format: ADME, organism-based, Canis lupus familiaris; details: in vivo
[19] = Oral bioavailability in beagle dog at 3 mg/kg by LC-MS/MS method; format: ADME, organism-based, Canis lupus familiaris; details: in vivo
[20] = Volume of distribution in beagle dog at 1 mg/kg, iv by LC-MS/MS method; format: ADME, organism-based, Canis lupus familiaris; details: in vivo
Mus musculus = test: Toxicity in human NCI-H2228 cells xenografted Balb/c mouse EML4-ALK NSCLC model assessed as induction of body weight loss at 30 mg/kg, po qd for 2 weeks; format: organism-based; details: in vivo, 336 h

pIC50 (NCI-H2228) | SMILES | pIC50 [1] | also measured
6.39 | Cc1cc(Nc2ncc(Cl)c(Nc3cn(C)nc3S(=O)(=O)C(C)C)n2)c(OC(CF)CF)cc1C1CCN(C)CC1 | 7.21 | 
7.49 | Cc1cc(Nc2ncc(Cl)c(Nc3cn(C)nc3S(=O)(=O)C(C)C)n2)c(OC2CC2)cc1C1CCCN(C)C1 (stereo not drawn) | 8.52 | pIC50 [2]: 8.52; pIC50 [3]: 8.15
6.57 | Cc1cc(Nc2ncc(Cl)c(Nc3cn(C)nc3S(=O)(=O)C(C)C)n2)c(OC(C)C)cc1C1CN(C)C1 | 7.77 | pIC50 [2]: 8.70; pIC50 [3]: 8.30
6.91 | Cc1cc(Nc2ncc(Cl)c(Nc3cn(C)nc3S(=O)(=O)C(C)C)n2)c(OC2CC2)cc1C1CCNCC1 | 8.05 | 
6.58 | Cc1cc(Nc2ncc(Cl)c(Nc3cn(C)nc3S(=O)(=O)C(C)C)n2)c(OCC2CC2)cc1C1CCNCC1 | 7.37 | 
6.65 | Cc1cc(Nc2ncc(Cl)c(Nc3cn(C)nc3S(=O)(=O)C(C)C)n2)c(OCC2CC2)cc1C1CCN(C)CC1 | 7.13 | 
5.97 | Cc1cc(Nc2ncc(Cl)c(Nc3cn(C)nc3S(=O)(=O)C(C)C)n2)c(C(F)(F)F)cc1C1CCN(C)CC1 | 7.13 | 
7.44 | CC(C)S(=O)(=O)c1nn(C)cc1Nc1nc(Nc2ccc(C3CCN(C)CC3)cc2OC2CC2)ncc1Cl | 8.15 | clearance [4]: 79.8 mL/min/kg
7.09 | CCNC(=O)N1CCC(c2cc(OC3CC3)c(Nc3ncc(Cl)c(Nc4cn(C)nc4S(=O)(=O)C(C)C)n3)cc2C)CC1 | 7.70 | pIC50 [2]: 8.40; pIC50 [3]: 8.22
6.43 | Cc1cc(Nc2ncc(Cl)c(Nc3cn(C)nc3S(=O)(=O)C(C)C)n2)c(OC(F)(F)F)cc1C1CCN(C)CC1 | 7.70 | 
6.88 | Cc1cc(Nc2ncc(Cl)c(Nc3cn(C)nc3S(=O)(=O)C(C)C)n2)c(OC(C)C)cc1C1CCN(C)C1 (stereo not drawn) | 7.96 | 
 | Cc1cc(Nc2ncc(Cl)c(Nc3cn(C)nc3S(=O)(=O)C(C)C)n2)c(OC2CC2)cc1C1CCN(C)CC1 |  | clearance [4]: 22.7 mL/min/kg
6.83 | Cc1cc(Nc2ncc(Cl)c(Nc3cn(C)nc3S(=O)(=O)C(C)C)n2)c(OC2CC2)cc1C1CCN(C(=O)C(C)C)CC1 |  | pIC50 [2]: 7.59; pIC50 [3]: 7.54
6.18 | Cc1cc(Nc2ncc(Cl)c(Nc3cn(C)nc3S(=O)(=O)C(C)C)n2)c(C(C)C)cc1C1CCN(C)CC1 |  | 
6.78 | CC(C)S(=O)(=O)c1nn(C)cc1Nc1nc(Nc2cc(C#N)c(C3CCN(C)CC3)cc2OC2CC2)ncc1Cl | 7.00 | 
6.99 | CC(C)S(=O)(=O)c1nn(C)cc1Nc1nc(Nc2cc(Cl)c(C3CCN(C)CC3)cc2OC2CC2)ncc1Cl | 7.82 | 
6.54 | Cc1cc(Nc2ncc(Cl)c(Nc3cn(C)nc3S(=O)(=O)C(C)C)n2)c(OC(C)C)cc1C1CNC1 | 7.22 | 
6.44 | Cc1cc(Nc2ncc(Cl)c(Nc3cn(C)nc3S(=O)(=O)C(C)C)n2)c(OC(C)C)cc1C1CCNC1 (stereo not drawn) | 7.55 | 
6.65 | Cc1cc(Nc2ncc(Cl)c(Nc3cn(C)nc3S(=O)(=O)C(C)C)n2)c(OC(C)C)cc1C1CCNCC1 | 7.77 | pIC50 [2]: 8.10; pIC50 [3]: 7.70
 | CS(=O)(=O)O.Cc1cc(Nc2ncc(Cl)c(Nc3cn(C)nc3S(=O)(=O)C(C)C)n2)c(OC(C)C)cc1C1CCN(C)CC1 |  | Cmax [5]: 199 ng/mL; AUC(0-inf) [6]: 3120 ng·h/mL; half-life [7]: 5.1 h; AUC(0-inf) [8]: 637 ng·h/mL; Tmax [9]: 6.7 h; clearance [10]: 26.2 mL/min/kg; AUC(0-inf) [11]: 988 ng·h/mL; half-life [12]: 4.9 h; bioavailability [13]: 63.2%; clearance [14]: 16.9 mL/min/kg; AUC(0-inf) [15]: 952 ng·h/mL; Vd [16]: 7.5 L/kg; Cmax [17]: 85.8 ng/mL; Tmax [18]: 2 h; bioavailability [19]: 49.2%; Vd [20]: 11 L/kg; Activity (Mus musculus): Non-toxic
